The values that follow come from patent publication US8614206B2 (Genentech, Inc., priority 2011, dated 2013).

In one test the test system is BaF3 parental cells. As to the kind of experiment: In vitro cell proliferation, BaF3 parental line + IL3 (CellTiter-Glo). The format is cell-based, murine. To be noted: Mus musculus, BaF3, BaF3 parental cells with IL-3, incubated overnight. On the technique in general: ATP-based viability assays read luminescence as a measure of living cells.
The target of the next test is PIM1 (Homo sapiens (Human), UniProt P11309). As to the kind of experiment: Pim kinase inhibition, PIM1 LC3K (Example 901). The format is biochemical.
Test [1] relates to MM1.S (multiple myeloma) cells. Put plainly: In vitro cell proliferation, MM1.S multiple myeloma cells (CellTiter-Glo, ATP). The following applies: Homo sapiens, MM1.S, 72 h, read-out: Prolif MM1S ATP (EC50). Format: cell-based. Put shortly: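 BaF3 parental cells (medium with 2 ng/mL mIL-3) seeded at 2 k/well and MM1.S at 10 k/well, then exposed to test compound at 37° C, 5% CO2: BaF3 overnight, MM1.S for 72 hours. Viability read by CellTiter-Glo; IC50/EC50 values calculated.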

Another test concerns BaF3 PIM1 cells. Put plainly: cells. To be noted: Mus musculus.
[2] abbreviates: read-out: Prolif BaF3 IL3 (IC50).
The mark [3] stands for this setting: BaF3, read-out: Prolif BaF3 PIM1 (IC50), BaF3 PIM1 cells, incubated overnight.
[4] abbreviates: read-out: Prolif BaF3 + IL3 (IC50).
[5] abbreviates: BaF3, read-out: Prolif BaF3_PIM1 (IC50), BaF3 PIM1 cells, incubated overnight.

Structures are written as SMILES. Read-outs that look alike come from different tables or passages of the source. Bounds are passed on as bounds.

One may read the IC50 as the concentration that gives 50% inhibition. Broadly, the Ki is the equilibrium dissociation constant of an inhibitor or competing ligand from its target. A lower Ki goes with a stronger hold on the target. What is called EC50 is the concentration that produces a half-maximal response.

Sequence of PIM1 (P11309 whole entry): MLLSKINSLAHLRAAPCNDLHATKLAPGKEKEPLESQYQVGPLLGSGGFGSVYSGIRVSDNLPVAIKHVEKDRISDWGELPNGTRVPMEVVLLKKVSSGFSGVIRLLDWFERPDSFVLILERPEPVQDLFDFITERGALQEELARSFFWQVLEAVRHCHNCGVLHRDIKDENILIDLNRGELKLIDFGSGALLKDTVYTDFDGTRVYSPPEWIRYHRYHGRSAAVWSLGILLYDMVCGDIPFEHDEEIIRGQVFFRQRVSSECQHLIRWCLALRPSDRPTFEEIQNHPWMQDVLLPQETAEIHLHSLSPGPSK
Method for BaF3 PIM1 cells: BaF3 parental line was obtained from the DSMZ repository. BaF3 lines transfected with PIM 1 or PIM2 were generated. Mouse IL-3 was purchased from R&D Systems. G418 was purchased from Clontech. Media for BaF3 parental line contained RPMI, 10% FBS, 2 mM L-Glutamine, 2 ng/mL mIL-3. Media for BaF3 PIM1 & 2 lines contained RPMI, 10% FBS, 2 mM L-Glutamine, 250 μg/mL.
BaF3, a murine interleukin-3 dependent pro-B cell line, parental cells, BaF3 PIM1 cells, BaF3 PIM2 cells, and MM1.S (multiple myeloma) cells were seeded at 2 k/well, 5 k/well, 5 k/well, and 10 k/well respectively, in a 384-well plate, at 45 μL/well. Test compound was added at 5 μL/well. BaF3 cells (parental and transfected) were incubated overnight, while MM1.S cells were incubated for 72 hours at 37° C., 5% CO2. CELL TITER GLO® Reagent (Promega) was added at 50 μL/well, the plates were incubated for 30 minutes, and their luminescence read on an HT Analyst. IC50/EC50 values for the test compound were calculated.

As to `Cn1ncc(NC(=O)c2nc(-c3cc(F)ccc3F)sc2N)c1N1CCNCC(F)(F)C1` [Example 106, 5-Amino-N-(5-(6,6-difluoro-1,4-diazepan-1-yl)-1-methyl-1H-pyrazol-4-yl)-2-(2,5-difluorophenyl)thiazole-4-carboxamide], the figures for the IC50 in the test with BaF3 parental cells (setting [2]) and with BaF3 PIM1 cells (setting [3]) were 15600 nM and 566 nM, respectively. On PIM1, this molecule showed a Ki of 0.03 nM. Besides, the EC50 in test [1] worked out at 1900 nM.

For `CN[C@@H]1CCCN(c2c(NC(=O)c3nc(-c4c(F)cccc4F)sc3N)cnn2CC(F)F)CC1` [Example 107, (R)-5-Amino-N-(1-(2,2-difluoroethyl)-5-(4-(methylamino)azepan-1-yl)-1H-pyrazol-4-yl)-2-(2,6-difluorophenyl)thiazole-4-carboxamide], the IC50 in the test with BaF3 parental cells (setting [2]) is 5100 nM; in the test on BaF3 PIM1 cells (setting [3]), 157 nM. This molecule yielded an inhibitory constant (Ki) at PIM1 of 0.079 nM. Further, in test [1], the EC50 worked out at 388 nM.

With `CN[C@@H]1CCCN(c2c(NC(=O)c3nc(-c4cc(F)ccc4F)sc3N)cnn2CC(F)F)CC1` [Example 108, (R)-5-Amino-N-(1-(2,2-difluoroethyl)-5-(4-(methylamino)azepan-1-yl)-1H-pyrazol-4-yl)-2-(2,5-difluorophenyl)thiazole-4-carboxamide], the 50% inhibitory concentration (IC50) in the test on BaF3 parental cells (setting [2]) is 4900 nM; in the test with BaF3 PIM1 cells (setting [3]) it was 326 nM. At PIM1, this molecule gave a Ki of 0.43 nM. Moreover, the EC50 in test [1] was found to be 1400 nM.

For the molecule `CN[C@@H]1CCCN(c2c(NC(=O)c3nc(-c4cc(C)ccc4F)sc3N)cnn2CC(F)F)CC1` [Example 109, (R)-5-Amino-N-(1-(2,2-difluoroethyl)-5-(4-(methylamino)azepan-1-yl)-1H-pyrazol-4-yl)-2-(2-fluoro-5-methylphenyl)thiazole-4-carboxamide], the IC50 with BaF3 parental cells (setting [2]) was 5100 nM; in the test with BaF3 PIM1 cells (setting [3]), 778 nM. The Ki at PIM1 was 0.097 nM. Moreover, in test [1], the EC50 is 3900 nM.

As for `Cn1ncc(NC(=O)c2nc(-c3c(F)ccc(C4CC4)c3F)sc2N)c1N1CCC[C@@H](N)CC1` [Example 115, (R)-5-amino-N-(5-(4-aminoazepan-1-yl)-1-methyl-1H-pyrazol-4-yl)-2-(3-cyclopropyl-2,6-difluorophenyl)thiazole-4-carboxamide], the IC50 with BaF3 parental cells (setting [2]) turned out to be 5800 nM; in the test on BaF3 PIM1 cells (setting [3]), 86.3 nM. For the same molecule, at PIM1, the Ki was 0.015 nM. In addition, the EC50 in test [1] was 420 nM.

With `Cc1ccc(F)c(-c2nc(C(=O)Nc3cnn(C)c3N3CCC[C@@H](N)CC3)c(N)s2)c1F` [Example 116, (R)-5-amino-N-(5-(4-aminoazepan-1-yl)-1-methyl-1H-pyrazol-4-yl)-2-(2,6-difluoro-3-methylphenyl)thiazole-4-carboxamide], the IC50 with BaF3 parental cells (setting [2]) is 8100 nM; in the test on BaF3 PIM1 cells (setting [3]), 63.6 nM. Moreover, at PIM1, the affinity, expressed as Ki, was 0.01 nM. The EC50 in test [1] came to 122 nM.

Take `CN[C@H]1CCCN(c2c(NC(=O)c3nc(-c4cc(C)ccc4F)sc3N)cnn2CC(F)F)CC1` [Example 119, (S)-5-Amino-N-(1-(2,2-difluoroethyl)-5-(4-(methylamino)azepan-1-yl)-1H-pyrazol-4-yl)-2-(2-fluoro-5-methylphenyl)thiazole-4-carboxamide]: the IC50 in the test on BaF3 parental cells (setting [2]) is 5600 nM; with BaF3 PIM1 cells (setting [3]), 212 nM. The Ki on PIM1 was 0.044 nM. In addition, the EC50 in test [1] is 3000 nM.

Consider `Nc1sc(-c2cc(F)ccc2F)nc1C(=O)Nc1cnn(CC(F)F)c1N1CCC[C@@H](N)CC1` [Example 161, (R)-5-amino-N-(5-(4-aminoazepan-1-yl)-1-(2,2-difluoroethyl)-1H-pyrazol-4-yl)-2-(2,5-difluorophenyl)thiazole-4-carboxamide], for which the IC50 was found to be 6000 nM in the test on BaF3 parental cells (setting [2]) and 404 nM in the test with BaF3 PIM1 cells (setting [3]). Moreover, the Ki on PIM1 turned out to be 0.12 nM. In addition, the EC50 in test [1] was determined as 160 nM.

In the case of `Cn1ncc(NC(=O)c2nc(-c3ccccn3)sc2N)c1N1CCNCC(F)(F)C1` [Example 223, 5-amino-N-(5-(6,6-difluoro-1,4-diazepan-1-yl)-1-methyl-1H-pyrazol-4-yl)-2-(pyridin-2-yl)thiazole-4-carboxamide], the IC50 with BaF3 parental cells (setting [2]) amounted to 12500 nM; in the test with BaF3 PIM1 cells (setting [3]) it was 547 nM. In addition, affinity at PIM1 was put at a Ki of 0.206 nM. The EC50 in test [1] was determined as 20200 nM.

As to `COC1CCN(c2c(NC(=O)c3nc(-c4ccccc4F)sc3N)cnn2C)CCC1N` (stereo not drawn) [Example 324, 5-amino-N-[5-(4-amino-5-methoxy-azepan-1-yl)-1-methyl-pyrazol-4-yl]-2-(2-fluorophenyl)thiazole-4-carboxamide], the IC50 was found to be 19600 nM with BaF3 parental cells (setting [4]) and 33.6 nM in the test on BaF3 PIM1 cells (setting [5]). Also, on PIM1, affinity was put at a Ki of 0.0694 nM. In test [1], the EC50 was 32 nM.

Take `COC1CCN(c2c(NC(=O)c3nc(-c4cc(C)ccc4F)sc3N)cnn2C)CCC1N` (stereo not drawn) [Example 325, 5-amino-N-[5-(4-amino-5-methoxy-azepan-1-yl)-1-methyl-pyrazol-4-yl]-2-(2-fluoro-5-methyl-phenyl)thiazole-4-carboxamide]: the values for the IC50 in the test with BaF3 parental cells (setting [4]) and in the test on BaF3 PIM1 cells (setting [5]) were 16600 nM and 191 nM, respectively. The same molecule gave a Ki at PIM1 of 0.153 nM. For the same molecule, the EC50 in test [1] turned out to be 752 nM.

As to `COC1CCN(c2c(NC(=O)c3nc(-c4cc(F)ccc4F)sc3N)cnn2C)CCC1N` (stereo not drawn) [Example 326, 5-amino-N-[5-(4-amino-5-methoxy-azepan-1-yl)-1-methyl-pyrazol-4-yl]-2-(2,5-difluorophenyl)thiazole-4-carboxamide], the IC50 turned out to be 17400 nM with BaF3 parental cells (setting [4]) and 73.5 nM in the test with BaF3 PIM1 cells (setting [5]). Further, at PIM1, the Ki is 0.384 nM. In addition, the EC50 in test [1] was 185 nM.

Turning to `Cc1ccc(F)c(-c2nc(C(=O)Nc3cnn(C4CC4)c3N3CCC(N)C(F)CC3)c(N)s2)c1` (stereo not drawn) [Example 329, 5-amino-N-[5-(4-amino-5-fluoro-azepan-1-yl)-1-cyclopropyl-pyrazol-4-yl]-2-(2-fluoro-5-methyl-phenyl)thiazole-4-carboxamide], the IC50 amounted to 4600 nM in the test with BaF3 parental cells (setting [4]) and 1300 nM in the test with BaF3 PIM1 cells (setting [5]). At PIM1, affinity was put at a Ki of 0.248 nM. In addition, the EC50 in test [1] came out at 2800 nM.

Regarding `Nc1sc(-c2c(F)cccc2F)nc1C(=O)Nc1cnn(C2CC2)c1N1CC[C@H](N)CC(F)(F)C1` [Example 344, 5-amino-N-[5-[(5S)-5-amino-3,3-difluoro-azepan-1-yl]-1-cyclopropyl-pyrazol-4-yl]-2-(2,6-difluorophenyl)thiazole-4-carboxamide], the IC50 in the test on BaF3 parental cells (setting [4]) was found to be 5200 nM; with BaF3 PIM1 cells (setting [5]) it was 83.6 nM. The molecule also registered a Ki on PIM1 of 0.01 nM. The EC50 in test [1] was 1200 nM.

With `Nc1sc(-c2c(F)cccc2F)nc1C(=O)Nc1cnn(C2CC2)c1N1CC[C@@H](N)CC(F)(F)C1` [Example 345, 5-amino-N-[5-[(5R)-5-amino-3,3-difluoro-azepan-1-yl]-1-cyclopropyl-pyrazol-4-yl]-2-(2,6-difluorophenyl)thiazole-4-carboxamide], the IC50 was found to be 8400 nM with BaF3 parental cells (setting [4]) and 81.3 nM in the test on BaF3 PIM1 cells (setting [5]). Besides, at PIM1, affinity was put at a Ki of 0.007 nM. Also, in test [1], the EC50 was 136 nM.

In the case of `COc1ncccc1-c1nc(C(=O)Nc2cnn(C)c2N2CCC[C@H](N)CC2)c(N)s1` [Example 418, 5-amino-N-[5-[(4S)-4-aminoazepan-1-yl]-1-methyl-pyrazol-4-yl]-2-(2-methoxy-3-pyridyl)thiazole-4-carboxamide], the figures for the IC50 in the test with BaF3 parental cells (setting [4]) and in the test on BaF3 PIM1 cells (setting [5]) were above 25000 nM and 1400 nM, respectively. The Ki on PIM1 came out at 1.08 nM. In addition, in test [1], the EC50 turned out to be 7000 nM.

As for `Cn1ncc(NC(=O)c2nc(-c3ccncc3F)sc2N)c1N1CC[C@H](N)[C@@H](F)CC1` [Example 422, 5-amino-N-(5-((4S,5S)-4-amino-5-fluoroazepan-1-yl)-1-methyl-1H-pyrazol-4-yl)-2-(3-fluoropyridin-4-yl)thiazole-4-carboxamide], the concentration for half-maximal inhibition (IC50) in the test with BaF3 parental cells (setting [4]) is above 25000 nM; in the test on BaF3 PIM1 cells (setting [5]), 340 nM. This molecule registered a Ki at PIM1 of 0.38 nM. In addition, in test [1], the concentration for a half-maximal effect (EC50) turned out to be 3800 nM.

As to `Cn1ncc(NC(=O)c2nc(-c3ccncc3F)sc2N)c1N1CC[C@@H](N)CC(F)(F)C1` [Example 447, 5-amino-N-[5-[(5R)-5-amino-3,3-difluoro-azepan-1-yl]-1-methyl-pyrazol-4-yl]-2-(3-fluoro-4-pyridyl)thiazole-4-carboxamide], the IC50 in the test with BaF3 parental cells (setting [4]) worked out at 12900 nM; in the test with BaF3 PIM1 cells (setting [5]) it was 6.97 nM. Further, the affinity at PIM1 corresponds to a Ki of 0.014 nM. The EC50 in test [1] came to 571 nM.

For `Cn1ncc(NC(=O)c2nc(-c3c(F)cncc3F)sc2N)c1N1CC[C@@H](N)CC(F)(F)C1` [Example 455, 5-amino-N-[5-[(5R)-5-amino-3,3-difluoro-azepan-1-yl]-1-methyl-pyrazol-4-yl]-2-(3,5-difluoro-4-pyridyl)thiazole-4-carboxamide], the IC50 in the test with BaF3 parental cells (setting [4]) was 3900 nM; in the test on BaF3 PIM1 cells (setting [5]), 2.57 nM. The same molecule came in with a Ki at PIM1 of 0.009 nM. Besides, the EC50 in test [1] amounted to 221 nM.

`COc1cc(F)c(-c2nc(C(=O)Nc3cnn(C)c3N3CCC(N)CC(F)(F)C3)c(N)s2)c(F)c1` (stereo not drawn) [Example 459, 5-amino-N-[5-(5-amino-3,3-difluoro-azepan-1-yl)-1-methyl-pyrazol-4-yl]-2-(2,6-difluoro-4-methoxy-phenyl)thiazole-4-carboxamide]: the IC50 in the test with BaF3 parental cells (setting [4]) was 7500 nM; in the test with BaF3 PIM1 cells (setting [5]) it was 6.84 nM. The molecule also returned a Ki at PIM1 of 0.006 nM. In addition, in test [1], the EC50 was 492 nM.

For `Cc1c(-c2nc(C(=O)Nc3cnn(C)c3N3CCC(N)CC(F)(F)C3)c(N)s2)cnn1C` (stereo not drawn) [Example 460, 5-amino-N-[5-(5-amino-3,3-difluoro-azepan-1-yl)-1-methyl-pyrazol-4-yl]-2-(1,5-dimethylpyrazol-4-yl)thiazole-4-carboxamide], the values for the IC50 in the test with BaF3 parental cells (setting [4]) and in the test on BaF3 PIM1 cells (setting [5]) were above 25000 nM and 36.4 nM, respectively. The same molecule yielded a Ki on PIM1 of 0.026 nM. In addition, the EC50 in test [1] was 215 nM.
